According to patent US20250283048A1, “PLATELET-ACTIVATING FACTOR BLOCKADE INHIBITS TUMOR GROWTH” (The Johns Hopkins University, priority 2022, published 2025):

Key:
[1] = system: TP53/CDKN2A^KO GEJ organoids; experiment: Average organoid size by phase-contrast imaging; type: cell-based, human; details: WEB2086 at various concentrations vs vehicle control (0.1% DMSO)
Excerpt: (FIG. 4A) mRNA levels of PTAFR in TP53/CDKN2A^KO vs. control GEJ organoids (left) and normal GEJ vs. EAC tissues. (FIG. 4B) Knockdown of PTAFR mRNA by siRNAs in TP53/CDKN2A^KO GEJ organoids. (FIG. 4C) Average organoid size and (E) cell viability determined by phase-contrast imaging and WST1 assays, respectively. (FIG. 4D) Ki67 labeling images and (FIG. 4E) quantification obtained on Day 7. *P<0.05 vs. same-day siCtrl. Scale bar=100 μm. (FIG. 4F-FIG. 4H) Average organoid size and cell viability (H) determined by phase-contrast imaging and WST1 assays, respectively. (FIG. 4G and FIG. 4H) Ki67 labeling images and quantification obtained on Day 10. Scale bar=100 μm. *P<0.05 vs Ctrl-DMSO on the same day; +, P<0.05 vs. WEB 10 μM on the same day; #P<0.05 vs. WEB 15 μM on the same day;
GEJ organoids were established as described in FIG. 1A. Briefly, fresh endoscopic GEJ biopsies were preserved in ice-cold conditioned PBS (PBS containing 10 μM ROCK inhibitor Y27632, 2% (vol/vol) penicillin/streptomycin, and 1× Primocin) until further processing within 24 hours. After washing biopsies with conditioned PBS at least 5 times, samples were minced into fragments <1 mm^3 using microdissecting scissors. […]
Following centrifugation at 400 g at 4° C. for 3 minutes, pelleted cell clusters were resuspended in Matrigel. […] Culture medium was changed once every three days until the organoids were ready to passage.

[2] = system: TP53/CDKN2A^KO GEJ organoids; experiment: Organoid viability assay (WST-1 assay); type: cell-based, human
Protocol: To quantify metabolically active viable cells, organoids were seeded onto 96-well plates and cultured. At indicated time points, 10 μL per well of Cell Proliferation Reagent WST-1 assay kits were added to the 96-well plates and incubated with organoids for 90 minutes. After incubation, only media was transferred to the wells of a new 96-well plate, which was read at an absorbance of 450 nm by a Thermo Scientific Microplate Reader. All experiments were performed in triplicate.

[3] = target: TP53/CDKN2A^KO GEJ organoids; experiment: Ki67 immunofluorescence labeling index; type: cell-based, human; details: WEB2086 at various concentrations vs vehicle control (0.1% DMSO); Day 10
Protocol: (§1) Organoid cultures and tissues were fixed overnight in 10% formalin at room temperature. Paraffin-embedded organoids and tissues were serially sectioned into 10-μm slices. Paraffin sections were deparaffinized, rehydrated, followed by either staining for hematoxylin and eosin (H&E), or antigen retrieval in sub-boiling 10-mM sodium citrate buffer pH 6.0 for 10 mins. For immunofluorescence (IF), slides were permeabilized in 0.5% TritonX-100 in PBS and blocked in 1% goat serum in PBS for 30 mins at room temperature. After blocking, slides were incubated with anti-Ki67 (1:200, Abcam) overnight in a humidified chamber at 4° C. Sections were washed by PBST (3 times for 5 mins each) and incubated with Alexa Fluor secondary antibodies (1:500) for 1 hr. After washing with PBST, slides were mounted with Fluoroshied with DAPI (Sigma).

[4] = system: TP53/CDKN2A^KO GEJ organoids xenograft; experiment: Xenotransplantation of TP53/CDKN2A^KO organoid cells in nude mice; type: in vivo; details: 5 mg/kg.d intraperitoneal every two days for 3 weeks; 3-month observation; vs 1.25% DMSO
Protocol: (§2) All procedures and experimental protocols involving mice were approved by the Animal Experimental Committee of the Johns Hopkins University School of Medicine. For xenotransplantation of organoids, 2×10^6 organoid cells or ESO26 cells resuspended in cold 50% Matrigel were injected into the axillary of nude mice. For the WEB2086 treatment assay, 5 mg/kg.d of WEB2086 or vehicle control (1.25% DMSO in PBS) was administered by intraperitoneal injection every two days for 3 weeks. Xenograft size was measured twice a week. The xenograft volume (V) was monitored by measuring the length (L) and width (W) with a caliper based on the formula V=1/2×(L×W^2). Mice were sacrificed at the end of the experiment, and xenografts were excised for further analyses.

Eso26 xenograft = experiment: Eso26 EAC cell line xenograft in nude mice; type: in vivo
Protocol: as §1
Immunohistochemistry was performed using the automated Bond-Max autostainer by Leica for the following antibodies: AE1/AE3 (1:200, Santa Cruz). Images were acquired with a Lecia Inverted Confocal SP8 (Johns Hopkins Medicine Ross Imaging Center). Reagents used here are listed in the Key Resources Table.
as §2

[5] = WEB2086 5 mg/kg.d intraperitoneal every two days for 3 weeks vs vehicle

## Cc1nnc2n1-c1sc(CCC(=O)N3CCOCC3)cc1C(c1ccccc1Cl)=NC2 [WEB2086]
[1]
  organoid size: significantly reduced
[2]; WEB2086 at various concentrations vs 0.1% DMSO
  metabolically active cells (WST-1), onset of decrease: began to decrease on day 4
[2]; WEB2086 at various concentrations, day 7 and 10
  inhibitory effect on metabolically active cells (WST-1): time- and dose-dependent inhibitory effect
[3]
  Ki-67 labeling index: significantly reduced
[4]
  tumor formation: completely prevented tumor formation
Eso26 xenograft; [5]
  EAC xenograft growth: significant suppression
  EAC xenograft weight: significant suppression
Eso26 xenograft; WEB2086 treated Eso26 tumor xenografts
  Ki67 expression in tumor xenografts (IHC): downregulated expression
